9 compounds from patent US6998244B1, “Cloning and expression of a novel 5-HT4 receptor” (Janssen Pharmaceutica N.V., priority 1999, dated 2006) can be followed below.

The target of assay [1] is T1, human 5-HT4(h) receptor (Homo sapiens, UniProt Q13639). The assay can be described thus: Competition with […] [3H]GR113808 binding, membranes of transfected COS-7 cells. The note with it: for pKi: Human 5-HT4 h receptor in Cos-7 cells, Cheng and Prusoff.
For assay [2], the target named is T2, human 5-HT4(a) receptor (Homo sapiens, UniProt Q13639).
T2 construct: expressed in transfected cells; host or cells: COS-7 cells, transient transfection with a pcDNA3 construct
T2 sequence (Q13639 1-387 isoform Q13639-2): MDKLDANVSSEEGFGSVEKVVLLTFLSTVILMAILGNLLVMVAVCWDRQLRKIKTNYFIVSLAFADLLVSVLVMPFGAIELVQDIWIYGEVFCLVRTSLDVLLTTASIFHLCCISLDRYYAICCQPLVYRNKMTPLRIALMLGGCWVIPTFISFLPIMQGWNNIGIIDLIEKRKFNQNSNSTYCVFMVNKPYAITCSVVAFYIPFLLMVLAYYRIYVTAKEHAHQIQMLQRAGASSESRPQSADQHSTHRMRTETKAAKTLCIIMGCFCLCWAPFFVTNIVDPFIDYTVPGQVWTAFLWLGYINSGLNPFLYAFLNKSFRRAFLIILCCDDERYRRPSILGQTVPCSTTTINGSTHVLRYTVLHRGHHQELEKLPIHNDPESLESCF
The description is as above. The note with it: for pKi / Ki: Human 5-HT4 a receptor in Cos-7 cells, Cheng and Prusoff.

In assay [3] the target is T3, human 5-HT4(b) receptor (Homo sapiens, UniProt Q13639).
T3 construct: expressed in transfected cells; host or cells: COS-7 cells, transient transfection with a pcDNA3 construct
T3 sequence (Q13639 whole entry): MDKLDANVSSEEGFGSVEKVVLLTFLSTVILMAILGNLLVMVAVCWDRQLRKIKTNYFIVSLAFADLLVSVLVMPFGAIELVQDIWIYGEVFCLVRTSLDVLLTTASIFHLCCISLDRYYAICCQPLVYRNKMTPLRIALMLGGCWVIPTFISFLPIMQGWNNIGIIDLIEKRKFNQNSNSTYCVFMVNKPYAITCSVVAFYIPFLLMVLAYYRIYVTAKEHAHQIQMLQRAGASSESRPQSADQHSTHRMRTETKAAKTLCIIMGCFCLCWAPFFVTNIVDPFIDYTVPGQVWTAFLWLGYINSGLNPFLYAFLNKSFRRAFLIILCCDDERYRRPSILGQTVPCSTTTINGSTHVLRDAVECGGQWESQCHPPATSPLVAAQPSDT
The assay is described as above. The note with it: for pKi / Ki: Human 5-HT4 b receptor in Cos-7 cells, Cheng and Prusoff.

Assay [4] addresses T3, human 5-HT4(b) receptor. The assay can be described thus: cAMP formation in transiently transfected COS-7 cells (flashplate assay). It counts as cell-based. The settings on record: 5-HT4 variant b, n = 8, cAMP formation. How it is done: (§1) Results represent the increase of cAMP after stimulation by agonist since basal level has been removed. […] The efficacy and potency of the different agonists to trigger the cellular response was estimated and compared for the three different variants.
(§2) These experiments were done using the NEN adenylyl cyclase activation flashplate assay, according to the supplier. Cells were removed from the Petri dishes with 3 ml EDTA (0.04% w/v) and resuspended with phosphate buffered saline without Ca^2+ and Mg^2+. The cells were centrifuged at 1500 g for 5 minutes and the supernatants were removed. The pellet was resuspend in stimulation buffer and diluted to a concentration of 10^6 cells/ml, 50 μl thereof were added per well of the flashplate (50000 cells/well). Compounds were diluted in PBS containing 1 mM pargyline and 1 mM paroxetine, and 50 μl of the resulting mixture was added per well, followed by an incubation for 20 minutes at 370° C. […] After incubation for 24 h at room temperature, counting was done in a Topcount (Packard).

The target of assay [5] is T2, human 5-HT4(a) receptor. The assay is described as above. Type of assay: cell-based. The settings on record: 5-HT4 variant a, n = 5, cAMP formation. How it is done:
as §1, §2
(Cyclic AMP is a second messenger, typically raised through Gs and lowered through Gi signalling.)

Assay [6] relates to COS-7 cells transfected with the empty vector. As to the kind of experiment: cAMP assay, negative control cells. The note with it: stimulation with 10^−6 M of each agonist. Type of assay: cell-based. The text has this:
Results represent the increase of cAMP after stimulation by agonist since basal level has been removed. […] The efficacy and potency of the different agonists to trigger the cellular response was estimated and compared for the three different variants. […] No difference in the pEC50 was noticed. The cAMP assay has been performed also for COS-7 cells transfected with the empty vector as a negative control.
These experiments were done using the NEN adenylyl cyclase activation flashplate assay, according to the supplier. Cells were removed from the Petri dishes with 3 ml EDTA (0.04% w/v) and resuspended with phosphate buffered saline without Ca^2+ and Mg^2+. The cells were centrifuged at 1500 g for 5 minutes and the supernatants were removed. The pellet was resuspend in stimulation buffer and diluted to a concentration of 10^6 cells/ml, 50 μl thereof were added per well of the flashplate (50000 cells/well). Compounds were diluted in PBS containing 1 mM pargyline and 1 mM paroxetine, and 50 μl of the resulting mixture was added per well, followed by an incubation for 20 minutes at […]. […] The experiment was stopped and a direct cAMP[^125I] detection assay was performed by adding 100 μl of detection mix per well. After incubation for 24 h at room temperature, counting was done in a Topcount (Packard).

In assay [7] the target is T1, human 5-HT4(h) receptor. As to the kind of experiment: cAMP formation in transiently transfected COS-7 cells (flashplate assay). Type of assay: cell-based. The arrangement: expressed in transfected cells; host or cells: COS-7 cells, transient transfection with 5-HT4(h)/pcDNA3. How it is done: as §1, §2
Another assay concerns the target T4, 5-HT4(b) variant (Homo sapiens, UniProt Q13639).
T4 construct: expressed in transfected cells; host or cells: COS-7 cells, transient transfection with a pcDNA3 construct
The assay can be described thus: Radioligand saturation binding, membranes of transfected COS-7 cells. An excerpt:
(§3) In order to compare the pharmacological properties of the 5-HT4(h) variant with those of the previously cloned 5-HT4(a) and b variant, the three corresponding pcDNA3 expression constructs were transiently transfected into COS cells. The receptors were investigated by radioligand binding assays on membrane preparations.

For the next assay, the target named is T5, 5-HT4(a) variant (Homo sapiens, UniProt Q13639).
T5 construct: expressed in transfected cells; host or cells: COS-7 cells, transient transfection with a pcDNA3 construct
T5 sequence (Q13639 1-387 isoform Q13639-2): as the sequence (Q13639 1-387 isoform Q13639-2) above
The assay is described as above.
Source text: as §3

The target of a further assay is T6, h 5-HT4(h) (Homo sapiens, UniProt Q13639).
T6 construct: expressed in transfected cells; host or cells: COS-7 cells, transient transfection with 5-HT4(h)/pcDNA3
T6 sequence (Q13639 1-402 isoform Q13639-6): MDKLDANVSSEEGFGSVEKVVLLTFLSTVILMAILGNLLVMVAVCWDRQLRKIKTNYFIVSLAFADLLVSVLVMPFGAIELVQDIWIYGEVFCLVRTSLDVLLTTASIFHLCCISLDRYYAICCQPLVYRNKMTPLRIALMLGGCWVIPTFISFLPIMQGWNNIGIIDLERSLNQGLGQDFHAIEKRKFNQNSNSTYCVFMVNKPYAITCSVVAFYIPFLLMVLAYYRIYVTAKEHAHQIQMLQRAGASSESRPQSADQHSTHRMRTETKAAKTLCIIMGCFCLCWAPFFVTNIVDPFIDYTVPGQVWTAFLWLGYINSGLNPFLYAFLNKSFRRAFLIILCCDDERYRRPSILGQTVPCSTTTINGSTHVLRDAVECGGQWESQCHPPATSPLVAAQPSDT
Described as above. The note with it: h variant, 3 independent transfections.
Source text: as §3

The subject of assay [8] is COS-7 cells transfected with the vector alone. As to the kind of experiment: Radioligand binding, negative control cells. The settings on record: 3 independent transfections. An excerpt:
The same result was obtained for the Bmax values found for the high affinity sites of the 2 reference 5-HT receptor variants a and b. […] Results are the mean of three independent transfections.

[9] abbreviates: 5-HT4 variant h, n = 3, cAMP formation.

T1 sequence (Q13639 1-402 isoform Q13639-6): as above

As to `COc1ccc2[nH]cc(CCN)c2c1` [5-MeOT], the pKi was 6.1 on human 5-HT4(h) receptor [1], 6.08 at human 5-HT4(a) receptor [2] and 6.13 at human 5-HT4(b) receptor [3].

As to `NCCc1c[nH]c2ccc(O)cc12` [5HT, 5-hydroxytryptamine], the “% of 5HT max (+/− SD)” value on human 5-HT4(b) receptor [4], on human 5-HT4(a) receptor [5] and on human 5-HT4(h) receptor [7] (setting [9]) was 100% throughout. Further, the “increase of the cAMP basal level” value in assay [6] is on record as “no significant increase”.

With `COc1cc(N)c(Cl)cc1C(=O)NC1CCN(CCCOc2ccc(F)cc2)CC1OC` (stereo not drawn) [Cisapride], the “increase of the cAMP basal level” value in [6] was “no significant increase”.

Turning to `Cn1cc(C(=O)OCC2CCN(CCNS(C)(=O)=O)CC2)c2ccccc21` [GR113808], the pKi on human 5-HT4(h) receptor [1] was 9.29; on human 5-HT4(a) receptor [2], 9.54; on human 5-HT4(b) receptor [3], 9.57. Also, the “% of 5HT max (+/− SD)” value is 0% at human 5-HT4(b) receptor [4], 0% on human 5-HT4(a) receptor [5] and 54.6% on human 5-HT4(h) receptor [7] (setting [9]). In addition, on human 5-HT4(h) receptor [7] (setting [9]), the “pEC50 (+/1 SD)” value is recorded as 7.95. The “effect at the 5-HT4(h) variant (agonist/antagonist)” value at human 5-HT4(h) receptor [7] (in words) is given as “agonistic effect”.

For the compound `CCOc1cc(N)c(Cl)cc1C(=O)NCC1CN(Cc2ccc(F)cc2)CCO1` (stereo not drawn) [Mosapride], the IC50 on human 5-HT4(h) receptor [1] was 282 nM; at human 5-HT4(a) receptor [2], 331 nM; at human 5-HT4(b) receptor [3] it was 912 nM. Further, the results for the Ki at human 5-HT4(h) receptor [1], on human 5-HT4(a) receptor [2] and at human 5-HT4(b) receptor [3] were 141 nM, 195 nM and 661 nM, respectively.

As to `COCCCN1CCC(NC(=O)c2cc(Cl)c(N)c3c2OCC3)CC1` [Prucalopride], the results for the “% of 5HT max (+/− SD)” value at human 5-HT4(b) receptor [4], at human 5-HT4(a) receptor [5] and at human 5-HT4(h) receptor [7] (setting [9]) were 117.36%, 118% and 95%, respectively. Further, the “increase of the cAMP basal level” value in assay [6] is given as “no significant increase”.

On to `CCCCN1CCC(COC(=O)c2cc(Cl)c(N)c3c2OCCO3)CC1` [SB204070], for which the pKi at human 5-HT4(h) receptor [1] was determined as 10.38; on human 5-HT4(a) receptor [2] it was 10.15; on human 5-HT4(b) receptor [3], 10.04.

Consider `CCCCCNC(=N)N/N=C/c1c[nH]c2ccc(OC)cc12` [SDZ-HTF919], for which the IC50 is 35.5 nM at human 5-HT4(h) receptor [1], 8.32 nM on human 5-HT4(a) receptor [2] and 12.9 nM at human 5-HT4(b) receptor [3]. For the same compound, the Ki on human 5-HT4(h) receptor [1] was 25.7 nM; on human 5-HT4(a) receptor [2] it was 13.8 nM; on human 5-HT4(b) receptor [3] it was 8.13 nM.

`Cn1cc(C(=O)OCC2CCN(CCNS(C)(=O)=O)CC2)c2ccccc21` [[^3H]GR113808]: the Kd at 5-HT4(b) variant worked out at 0.19 nM; on 5-HT4(a) variant it was 0.14 nM; on h 5-HT4(h) it was 0.24 nM. Also, the specific binding entry in assay [8] was “no specific binding”.

The pKi is the negative decadic logarithm of the Ki, by convention in mol/L. By IC50 is commonly meant the concentration that gives 50% inhibition. A low value points to inhibition by little substance. For orientation: Ki means the dissociation constant of the complex between target and ligand, obtained from inhibition or displacement. As usually defined, the Kd is the concentration at which binding is half-saturated. Read a high Kd as weaker binding.
